Here are results for one compound from article PMC9673804, “Design, synthesis and antitumor evaluation of novel pyrazolo[3,4-d]pyrimidines incorporating different amino acid conjugates as potential DHFR inhibitors” (Journal of Enzyme Inhibition and Medicinal Chemistry, 2022).

The term IC50 denotes the concentration that inhibits the measured activity by half. A higher IC50 goes with lower potency. By inhibition is commonly meant the percentage by which the read-out fell short of the control. The low end stands for a weak effect, the high end for a strong effect.

Values joined by “and” are separate entries in the source; they are usually repeats but may differ in a detail not shown here. Identical values can stand only once. “Also recorded” adds a separate entry of the source. Where only a bound is given, the exact number is not on record here.

Assay [1] concerns human prostate cancer (PC-3). The assay can be described thus: SRB cytotoxicity assay, PC-3. It counts as cell-based. To be noted: PC-3 cells. As to the method: (§1) The SRB colorimetric assay was employed to assess the synthesized compounds’ cytotoxic effects on several cancer cell lines (Table 1)[11–14]. […] Furthermore, the effect of tested compounds was evaluated on the normal immortalized HPDE cell line.
(§2) Sulforhodamine B (SRB) assay was employed to assay in-vitro antitumor activities of all the synthesised compounds as describer previously. […] The cell lines were obtained from the American Type Culture Collection (Rockville, USA).
In general terms: In SRB staining, fixed cells bind dye roughly in proportion to their protein.

Assay [2] concerns pancreatic human cancer cell lines (BxPC-3). The assay can be described thus: SRB cytotoxicity assay, BxPC-3. It counts as cell-based. To be noted: BxPC-3 cells. As to the method:
as §1, §2

In assay [3] the target is T1, human DHFR enzyme (Homo sapiens, UniProt P00374).
T1 construct: purchased MyBioSource MBS9312476
T1 sequence (P00374 1-187): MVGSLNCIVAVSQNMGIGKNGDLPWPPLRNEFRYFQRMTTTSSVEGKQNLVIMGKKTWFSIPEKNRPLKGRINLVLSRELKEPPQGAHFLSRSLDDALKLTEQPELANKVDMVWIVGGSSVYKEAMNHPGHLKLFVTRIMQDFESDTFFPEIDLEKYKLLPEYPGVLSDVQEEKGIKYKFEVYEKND
Briefly: Elisa assay of human DHFR enzyme. It counts as biochemical. As to the method: Enzyme-linked immunosorbent assay (ELISA) assay technique was used to evaluate the anti-DHFR effects of all the synthesised compounds on as described previously. The DHFR ELISA kit (MyBioSource, MBS9312476 San Diego, CA, USA) was used according to the manufacturer instructions. […] The test was repeated in triplicate, and the significance was assessed by one-way ANOVA test followed by Tukey’s posttest, where p < 0.05 was considered significance.

For assay [4], the system named is MCF-7 breast cancer cell line. Briefly: Flow cytometric cell cycle analysis. It is filed as cell-based, human. An excerpt: Clearly, compound 7f enhanced the accumulation proportion of cells at the pre-G1 phase from 2.19 to 41.36%, and the accumulation percentages in S phase from 31.87 to 46.36%. […] Figure 8).
(In general: A flow cytometer gives signals particle by particle.)

Assay [5] concerns caspase 3. The assay can be described thus: Western blot of caspase-3 expression in MCF-7. It is filed as cell-based, human. Here is the method:
The effect of compound 7f on the expression of DHFR, Casp3, Bax, and Bcl-2 proteins in MCF-7 cancer cells was evaluated by western blotting as previously performed. The cancer cells treated or untreated were collected were harvested and blotted on SDS-polyacrylamide gel and separated by Cleaver electrophoresis unit (Cleaver, UK), transferred onto polyvinylidene fluoride (PVDF) membranes (Millipore, USA) for 30 min using a Semi-dry Electroblotter (Biorad, USA) at 2.5 A and 25 V for 30 min. […] After washing, the chemiluminescent Western ECL substrate (Perkin Elmer, Waltham, MA, USA) was applied to the blot and then incubated for 1 min with a mixture of equal volumes from ECL solution A and ECL solution B. The chemiluminescent signals were captured using a CCD camera-based imager (Chemi Doc imager, Biorad, USA), and the bands intensities were then measured by Image J software program. […] For colorimetric assays two-way ANOVA test followed by Bonferroni posttest were used, while for quantification expression on western blot, student-t-test was used (significance p < 0.05). […]
Sodium dodecyl sulfate polyacrylamide gel electrophoresis (SDS-PAGE) is used to separate proteins based on their size. […] The secondary antibody is typically linked to an enzyme that produces luminescence upon the reaction with its substrate. […]
Background: A western blot detects proteins with antibodies after separation by electrophoresis.

Assay [6] has as its system caspase 3/7. The assay can be described thus: Caspase-Glo 3/7 assay in MCF-7. It is filed as cell-based, human. To be noted: ½ IC50, IC50, 2×IC50, dose dependent. As to the method: (§3) The apoptotic effect of compound 7f on breast cancer cell line MCF-7 were evaluated by quantification of Bax, caspase 3/7, and Bcl-2 using Bax ELISA Kit ab199080 (ABCAM, Cambridge, UK), Caspase-Glo 3/7 assay kits (Promega, Fitchburg, MA, USA), and Bcl-2 ELISA Kit ab119506 (ABCAM, Cambridge, UK), according the instructions of manufacturers[11]^,[14]. The cells were treated with compounds 7f (½ IC50, IC50, or 2 ×IC50), and the activities were shown as a percentage change from the untreated control. The experiments were performed in triplicate applying two-way ANOVA test followed by Bonferroni posttest to evaluate the significance (p < 0.05).

Assay [7] relates to Bcl-2. Briefly: Bcl-2 ELISA in MCF-7. It counts as cell-based, human. To be noted: dose-dependent. Here is the method: as §3

As to `N=C(N)NCCCC(NC(=O)c1ccc(Nc2ncnc3c2cnn3-c2ccccc2)cc1)C(=O)O` (stereo not shown) [Compound 7f, 5-Guanidino-2-{4-[(1-phenyl-1H-pyrazolo[3,4-d]pyrimidin-4-yl)amino]benzamido}pentanoic acid], the IC50 was 6.29 ± 0.56 µM in assay [1]; 7.09 ± 0.09 µM in assay [2]; < 1 µM and 0.31 µM in assay [3] (DHFR ELISA kit, triplicate). For the same compound, the inhibition at 0.1 µM in assay [3] (conc 0.1 uM) turned out to be 44%. In assay [3] (conc 1 uM), this compound showed an inhibition at 1 µM of 66%. Also, the inhibition at 10 µM in assay [3] (conc 10 uM) was found to be 86%. The inhibition at 100 µM in assay [3] (conc 100 uM) is 94%. In addition, the “Comment (cell cycle arrest)” value in assay [4] (MCF-7 cells) is on record as “arrested cell cycle at S phase; also recorded: Cell growth arrest at S”. Besides, the “%Pre-G1” value in assay [4] (MCF-7 cells treated with the compound, control 2.19) is reported as 41.36%. Besides, the “%G2/M” value in assay [4] (MCF-7 cells treated with the compound, control 12.01) is given as 1.5%. In assay [4] (MCF-7 cells treated with the compound, control 31.87), the “%S” value is on record as 46.39%. In addition, the “%G0-G1” value in assay [4] (MCF-7 cells treated with the compound, control 56.12) was found to be 52.11%. Besides, in assay [5] (MCF7 cells, Cont.MCF7 0.171), the “western blotting OD Casp3” value is 0.575 OD. Moreover, in assay [5] (MCF-7), the “expression of caspase 3 (western blot)” value was “significantly increased the expression”. In addition, the “release of caspase 3/7” value in assay [6] is on record as “significantly surge the release”. The “Bcl-2 production (ELISA)” value in assay [7] is “significantly reduced the Bcl-2 production”.
